pIC50: −log10 of the molar value.
Target: Vascular endothelial growth factor receptor 2 (Homo sapiens, UniProt P35968)
Experiment: Inhibitory concentration against human Vascular endothelial growth factor receptor 2

Vascular endothelial growth factor receptor 2, sequence (P35968 whole entry): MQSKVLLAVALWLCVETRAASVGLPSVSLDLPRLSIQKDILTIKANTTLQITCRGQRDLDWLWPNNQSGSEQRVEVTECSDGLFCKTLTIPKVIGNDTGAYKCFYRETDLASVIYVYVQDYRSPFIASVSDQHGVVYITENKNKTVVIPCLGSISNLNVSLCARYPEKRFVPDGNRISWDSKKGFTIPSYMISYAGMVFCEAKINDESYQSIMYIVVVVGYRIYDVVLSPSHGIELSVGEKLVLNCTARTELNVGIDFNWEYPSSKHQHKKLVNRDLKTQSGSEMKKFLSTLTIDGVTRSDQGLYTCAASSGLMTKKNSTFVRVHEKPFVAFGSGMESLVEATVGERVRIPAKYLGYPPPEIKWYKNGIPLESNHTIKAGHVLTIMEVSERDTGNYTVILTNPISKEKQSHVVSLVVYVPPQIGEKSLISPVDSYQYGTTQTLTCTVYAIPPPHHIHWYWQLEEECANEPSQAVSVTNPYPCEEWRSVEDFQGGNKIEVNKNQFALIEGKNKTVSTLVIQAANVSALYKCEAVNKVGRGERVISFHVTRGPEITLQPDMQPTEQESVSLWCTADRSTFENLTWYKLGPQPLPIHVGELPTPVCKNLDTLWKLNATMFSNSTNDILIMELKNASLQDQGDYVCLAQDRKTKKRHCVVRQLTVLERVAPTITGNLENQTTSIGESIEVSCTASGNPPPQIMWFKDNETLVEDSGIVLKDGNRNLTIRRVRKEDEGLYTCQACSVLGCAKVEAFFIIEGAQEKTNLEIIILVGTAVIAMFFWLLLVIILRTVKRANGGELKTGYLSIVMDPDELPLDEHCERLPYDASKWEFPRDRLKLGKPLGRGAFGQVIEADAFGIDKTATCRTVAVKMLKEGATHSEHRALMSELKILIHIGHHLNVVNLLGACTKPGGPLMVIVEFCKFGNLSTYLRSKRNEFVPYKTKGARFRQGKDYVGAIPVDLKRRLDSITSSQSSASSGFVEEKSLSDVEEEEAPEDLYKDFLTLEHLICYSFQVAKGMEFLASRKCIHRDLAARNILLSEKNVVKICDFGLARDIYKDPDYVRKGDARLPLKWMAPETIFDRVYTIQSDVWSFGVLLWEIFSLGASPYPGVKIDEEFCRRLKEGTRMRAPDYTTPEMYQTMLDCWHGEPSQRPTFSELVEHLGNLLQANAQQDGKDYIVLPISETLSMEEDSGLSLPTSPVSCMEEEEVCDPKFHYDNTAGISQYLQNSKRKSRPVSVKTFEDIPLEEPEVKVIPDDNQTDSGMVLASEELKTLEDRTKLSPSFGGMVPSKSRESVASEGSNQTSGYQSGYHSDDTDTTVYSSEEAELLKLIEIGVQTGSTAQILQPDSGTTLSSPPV

In the case of C/C(=C\C=C\CC(C)C(CC(=O)O)O[C@H]1O[C@@H](CO)[C@H](O)[C@H](O)[C@@H]1O)C(=O)O (stereo partly specified), the pIC50 was 5.30.

— ChEMBL document CHEMBL1143483, “A new antitumor compound from the plant Oryctanthus sp. as a VEGF receptor binding inhibitor” (Bioorg Med Chem Lett, 2005)
